Experimental findings from patent US12622944B2, “Compositions containing, methods involving, and uses of non-natural amino acid linked dolastatin derivatives” (priority 2011, dated 2026) are described below.

Like-named read-outs stand apart in the source and are kept apart here.

Experiment [1] has as its system HCC1954 (human breast carcinoma) xenograft. In words: In vivo anti-tumor efficacy in HCC1954 xenograft, SCID-bg mice. The following applies: 25 mg/kg iv qod × 5; day 28; HCC1954 study.
Protocol: HCC1954 (human breast carcinoma) cells were obtained from American Type Culture Collection (Manassas, VA) and cultured in RPMI+10% FBS, 37° C., 5% CO2 until 80% confluent. Cells were harvested by trypsinization and suspended in PBS at 1×10^8 cells/mL.
Female, SCID-beige mice, 5-8 weeks old, were obtained from Charles River Laboratories. HCC1954 cells (human, breast carcinoma, ATCC, #CRL-2338) were mixed 1:1 with Matrigel (BD Biosciences, Bedford MA) and injected subcutaneously into the mice. When tumors reached an average size of 100-200 mm^3, mice were sorted into groups of 9-10 mice each. Caliper measurements were taken twice weekly until the end of the study. To estimate tumor volume, two orthogonal diameters were measured with calipers and the values entered into the formula, (L×W×W)/2=V, (where W=the shortest diameter, L=the longest diameter and V-volume), to obtain an estimated volume. The tumor volume was converted to tumor weight in the Excel data file by assuming 1 mm^3=1 mg. Endpoint was based on a study design of tumor growth inhibition (TGI). When the mean tumor volume of the control group reached approx. 1,000 mm^3 all mice were euthanized or day 28, whichever came first. […]
HCC1954 cells were utilized for this study with 10 cells/mouse in Matrigel, SC in the right flank. […] Tumor volume was monitored until the endpoint was reached (1,000 mm^3 or 60 days). […]
For experiment [2], the system named is BT474. In words: In vitro inhibition of proliferation assay (WST-8), BT474. In kind it is cell-based. The method, then: (§1) At day 1, the cells were seeded. The media was aspirated and the T-225 culture flasks of cells was rinsed with 30 mL PBS−/. PBS was aspirated and 6 mL of 0.25% Trypsin-EDTA was added to each flask. The flasks were incubated at 37° C., 5% CO2 for 2-5 minutes. Adherent cells were dislodged by hitting flask and trypsin was neutralized by adding 14 mL culture medium. The cell suspension was mixed and transferred to a 50 mL conical tube. The cells were spun down at 1200 rpm, 5 min, room temperature. The resultant cell pellet was resuspended in 12 mL of culture medium. The cells were counted in a hemacytometer. Cells were seeded at appropriate cell densities into 96-well flat-bottom, clear plates and incubated overnight at 37° C., 5% CO2 to allow cells to attach. Plating volume was 80 uL/well. 80 uL/well of culture medium was utilized as the “no cell” control.
(§2) Cell plating density examples include: • BT474 (high Her2)—20,000 cells/well in F12k/DMEM (50/50), 10% FBS, P/S • MDA-MB-468 (Her2 negative)-6,000 cells/well in F12k/DMEM (50/50), 10% FBS, P/S • HCC1954—5,000 cells/well in RPMI 1640, 10% FBS, P/S • SKOV-3—6,000 cells/well in RPMI 1640, 10% FBS, P/S • HT29—20,000 cells/well in McCoy's 5A, 10% FBS, P/S
(§3) At day 2, the test samples were added to the cells. The test samples were diluted in culture medium to a 9× stock concentration in Column 2 of a round-bottom 96-well plate. 3× serial dilutions were made from Column 2 to Column 11 with a multi-channel pipettor. 10 uL/well of the above samples was added in duplicate to the appropriate wells of the seeded plate. The total volume in the wells was about 90 uL/well. 10 uL/well of culture medium was added to avoid edge effects for sample wells. Media Control wells were included in the inner wells where no sample was added (just 10 uL/well of culture medium) to be used in proliferation calculations. The plates were incubated at 37° C., 5% CO2 for 72 hrs.
(§4) At day 5, proliferation readout occurred. […] The plates were measured for absorbance at OD 450 nm. […]

For experiment [3], the system named is HT29. Description: In vitro inhibition of proliferation assay (WST-8), HT29. In kind it is cell-based. The following applies: Data Set II, experiment Sept. 24, 2010, read-out: IC50 Values [nM] after 72 hr drug treatment. The method, then: as §1, §2
(§5) At day 2, the test samples were added to the cells. […]
as §4
(Formazan colour is commonly taken as a measure of viable cells.)

In experiment [4] the test system is MDA-MB-468. In words: In vitro inhibition of proliferation assay (WST-8), MDA-MB-468. In kind it is cell-based. The conditions noted are these: Data Set II, experiment Oct. 8, 2010, read-out: IC50 Values [nM] after 72 hr drug treatment. The protocol:
as §1, §2, §5, §4

Experiment [5] concerns MDA-MB-175. In words: In vitro inhibition of proliferation assay (WST-8), MDA-MB-175. The experiment is classed as cell-based. The conditions noted are these: Data Set I, experiment Sept. 13, 2010. The protocol: as §1
(§6) At day 2, the test samples were added to the cells. The test samples were diluted in culture medium to a 9× stock concentration in Column 2 of a round-bottom 96-well plate. 3× serial dilutions were made from Column 2 to Column 11 with a multi-channel pipettor. 10 uL/well of the above samples was added in duplicate to the appropriate wells of the seeded plate. The total volume in the wells was about 90 uL/well. […]
as §4

Experiment [6] relates to SKOV-3. In words: In vitro inhibition of proliferation assay (WST-8), SKOV-3. In kind it is cell-based. The protocol: as §1, §2, §3, §4
Experiment [7] has as its system ZR-75-30. In words: In vitro inhibition of proliferation assay (WST-8), ZR-75-30. The experiment is classed as cell-based. The following applies: Data Set I, experiment Sept. 4, 2010, read-out: IC50 Values [nM] after 72 hr drug treatment. The protocol:
as §1, §6, §4

The subject of experiment [8] is NCI-N87. Description: In vitro inhibition of proliferation assay (WST-8), NCI-N87. In kind it is cell-based. The following applies: Data Set I, experiment Sept. 4, 2010, read-out: IC50 Values [nM] after 72 hr drug treatment. The method, then:
as §1, §6, §4

The test system of experiment [9] is HCC1954. Description: In vitro inhibition of proliferation assay (WST-8), HCC1954. The experiment is classed as cell-based, human. The conditions noted are these: read-out: IC50 Values [nM] after 72 hr drug treatment. The protocol: as §1, §2, §5, §4
Experiment [10] concerns LS513. Description: In vitro inhibition of proliferation assay (WST-8), LS513. In kind it is cell-based. The conditions noted are these: Data Set I, experiment Sept. 4, 2010, read-out: IC50 Values [nM] after 72 hr drug treatment. The protocol: as §1, §6, §4
[11] abbreviates: Data Set I, experiment Sept. 4, 2010, read-out: IC50 Values [nM] after 72 hr drug treatment.
Setting [12] is: Data Set I, experiment Sept. 13, 2010, read-out: IC50 Values [nM] after 72 hr drug treatment.

On to `CC(=O)O[C@H]1C(=O)[C@@]2(C)[C@H]([C@H](OC(=O)c3ccccc3)[C@]3(O)C[C@H](OC(=O)[C@H](O)[C@@H](NC(=O)c4ccccc4)c4ccccc4)C(C)=C1C3(C)C)[C@]1(OC(C)=O)CO[C@@H]1C[C@@H]2O` [paclitaxel], for which, in [1], the “Median Tumor Volume (mm3)” value stood at 18 mm3 and the “T/C (Treated/Control)” value was found to be 0.037.
Turning to Dolastatin, the concentration for half-maximal inhibition (IC50) in experiment [2] (setting [11]) was 0.1 nM; in [2] (setting [12]) it was 0.1 nM; in experiment [2] (Data Set II, experiment Sept. 24, 2010, read-out: IC50 Values [nM] after 72 hr drug treatment), 2.5 nM; in [3], 4 nM; in [4], below 0.01 nM; in experiment [6] (setting [11]), 0.2 nM. The half-inhibitory concentration (IC50) was 0.1 nM in experiment [6] (setting [12]); 0.2 nM in experiment [6] (Data Set II, experiment Oct. 8, 2010, read-out: IC50 Values [nM] after 72 hr drug treatment); above 30 nM in [7]; above 30 nM in experiment [8]; 0.06 nM in experiment [9] (HCC1954, Data Set I, experiment Sept. 4, 2010); 0.04 nM in experiment [9] (HCCI954, Data Set II, experiment Oct. 8, 2010). Further, in experiment [10], the IC50 was determined as 0.2 nM. In addition, the “IC50 Values [nM] after 72 hr drug treatment” value in experiment [5] is “no fit”.

One may read the IC50 as the midpoint of a concentration-inhibition curve.
